This note sets out measurements from patent US10793580B2, “Substituted pyrazoloazepin-8-ones and their use as phosphodiesterase inhibitors” (LEO Pharma A/S, priority 2016, dated 2020).

By IC50 is commonly meant the concentration that gives 50% inhibition.

The target in one assay is human PDE4D catalytic domain (Homo sapiens (Human), UniProt Q08499). Briefly: PDE4 Assay (TR-FRET, FAM-cAMP cleavage). The format is biochemical. To be noted: Table 16, Examples 277-296; read-out: PDE4 IC50 range. The method, boiled down: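 Readout is Tb-to-FAM time-resolved FRET after nanoparticle capture of AMP, the product of cleaving a cAMP/FAM-cAMP mixture by PDE4D catalytic domain (S380-L740) in the presence of titrated compound. Values are IC50 ranges in nM: concentration halving substrate cleavage relative to controls.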
human PDE4D catalytic domain, sequence (Q08499 380-740): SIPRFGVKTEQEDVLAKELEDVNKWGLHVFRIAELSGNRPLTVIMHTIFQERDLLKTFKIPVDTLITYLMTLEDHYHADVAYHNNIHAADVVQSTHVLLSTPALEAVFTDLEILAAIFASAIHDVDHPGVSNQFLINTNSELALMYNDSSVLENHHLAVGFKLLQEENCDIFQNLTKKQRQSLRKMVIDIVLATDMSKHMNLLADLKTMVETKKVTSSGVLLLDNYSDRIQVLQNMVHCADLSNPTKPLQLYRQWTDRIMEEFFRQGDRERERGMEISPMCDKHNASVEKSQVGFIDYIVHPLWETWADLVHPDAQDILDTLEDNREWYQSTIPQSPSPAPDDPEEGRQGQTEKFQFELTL
Turning to `CCn1nc(C[C@@H](C)COC(=O)c2cnn(C)c2)c2c1C(=O)NCC1(CCOCC1)C2` [Example 279, [(2R)-3-(1-ethyl-8-oxo-spiro[6,7-dihydro-4H-pyrazolo[3,4-c]azepine-5,4′-tetrahydropyran]-3-yl)-2-methyl-propyl] 1-methylpyrazole-4-carboxylate], the IC50 was under 100 nM.

In the case of `CCn1nc(C[C@@H](C)COC(=O)c2cscn2)c2c1C(=O)NCC1(CCOCC1)C2` [Example 285, [(2R)-3-(1-ethyl-8-oxo-spiro[6,7-dihydro-4H-pyrazolo[3,4-c]azepine-5,4′-tetrahydropyran]-3-yl)-2-methyl-propyl] thiazole-4-carboxylate], the IC50 was under 100 nM.

For `CCn1nc(C[C@@H](C)COC(=O)c2cnc(C)s2)c2c1C(=O)NCC1(CCOCC1)C2` [Example 291, [(2R)-3-(1-ethyl-8-oxo-spiro[6,7-dihydro-4H-pyrazolo[3,4-c]azepine-5,4′-tetrahydropyran]-3-yl)-2-methyl-propyl] 2-methylthiazole-5-carboxylate], the IC50 is under 100 nM.

The assay is the same for the next values; noted with them: Table 17, Examples 297-316; read-out: PDE4 IC50 range.
Take `CCn1nc(CC(C)(C)COC(=O)c2ccn(C)n2)c2c1C(=O)NCC1(CCOCC1)C2` [Example 298, [3-(1-ethyl-8-oxo-spiro[6,7-dihydro-4H-pyrazolo[3,4-c]azepine-5,4′-tetrahydro-pyran]-3-yl)-2,2-dimethyl-propyl] 1-methylpyrazole-3-carboxylate]: the IC50 is under 100 nM.

Regarding `CCn1nc(CC(C)(C)COC(=O)c2cnc(C)s2)c2c1C(=O)NCC1(CCOCC1)C2` [Example 311, [3-(1-ethyl-8-oxo-spiro[6,7-dihydro-4H-pyrazolo[3,4-c]azepine-5,4′-tetrahydropyran]-3-yl)-2,2-dimethyl-propyl] 2-methylthiazole-5-carboxylate], the IC50 was under 100 nM.

On to `CCn1nc(CC(C)(C)COC(=O)C2CCN(C(=O)OC)CC2)c2c1C(=O)NCC1(CCOCC1)C2` [Example 315, [3-(1-ethyl-8-oxo-spiro[6,7-dihydro-4H-pyrazolo[3,4-c]azepine-5,4′-tetrahydro-pyran]-3-yl)-2,2-dimethyl-propyl] 1-methoxycarbonyl-peridine-4-carboxylate], for which the IC50 was under 100 nM.

Staying with this assay, now noted: human PDE4D catalytic domain (UniProt Q08499 [S380-L740]); 50% inhibition of substrate cleavage; read-out: PDE4 IC50 range.
Consider `CCn1nc(CCCCOC(=O)c2cc(C)n(C)n2)c2c1C(=O)NCC1(CCOCC1)C2` [Example 272, 4-(1-ethyl-8-oxo-spiro[6,7-dihydro-4H-pyrazolo[3,4-c]azepine-5,4′-tetrahydro-pyran]-3-yl)butyl 1,5-dimethylpyrazole-3-carboxylate], for which the IC50 is under 100 nM.

As for `CCn1nc(C[C@@H](C)COC(=O)CCSC)c2c1C(=O)NCC1(CCOCC1)C2` [Example 139, [(2R)-3-(1-ethyl-8-oxo-spiro[6,7-dihydro-4H-pyrazolo[3,4-c]azepine-5,4′-tetrahydropyran]-3-yl)-2-methyl-propyl] 3-methylsulfanylpropanoate], the IC50 is under 100 nM.

Take `CCn1nc(CCCOC(=O)c2ccc(C(=O)N3CCCCC3)cc2)c2c1C(=O)NCC1(CCOCC1)C2` [Example 108, 3-(1-ethyl-8-oxo-spiro[6,7-dihydro-4H-pyrazolo[3,4-c]azepine-5,4′-tetrahydro-pyran]-3-yl)propyl 4-(piperidine-1-carbonyl)benzoate]: the IC50 is under 100 nM.

Regarding `CCn1nc(CCCOC(=O)c2cc(F)cc(C#N)c2)c2c1C(=O)NCC1(CCOCC1)C2` [Example 29, 3-(1-ethyl-8-oxo-spiro[6,7-dihydro-4H-pyrazolo[3,4-c]azepine-5,4′-tetrahydropyran]-3-yl)propyl 3-cyano-5-fluoro-benzoate], the IC50 is under 100 nM.

As for `CCn1nc(C[C@@H](C)COC(=O)c2cccc(S(=O)(=O)N3CCCC3)c2)c2c1C(=O)NCC1(CCOCC1)C2` [Example 163, [(2R)-3-(1-ethyl-8-oxo-spiro[6,7-dihydro-4H-pyrazolo[6,7-c]azepine-5,4′-tetrahydropyran]-3-yl)-2-methyl-propyl] 3-pyrrolidin-1-ylsulfonylbenzoate], the IC50 is under 100 nM.

With `CCn1nc(CCCOC(=O)c2ccc(Cl)c(OC)c2)c2c1C(=O)NCC1(CCOCC1)C2` [Example 55, 3-(1-ethyl-8-oxo-spiro[6,7-dihydro-4H-pyrazolo[3,4-c]azepine-5,4′-tetrahydropyran]-3-yl)propyl 4-chloro-3-methoxy-benzoate], the IC50 is under 100 nM.

Regarding `CCn1nc(CCOC(=O)C2CCOCC2)c2c1C(=O)NCC1(CCOCC1)C2` [Example 276, 2-(1-ethyl-8-oxo-spiro[6,7-dihydro-4H-pyrazolo[3,4-c]azepine-5,4′-tetrahydropyran]-3-yl)ethyl tetrahydropyran-4-carboxylate], the IC50 was in the range of 100 to 500 nM.

`CCn1nc(CCCOC(=O)c2ccc(C(F)(F)F)cc2F)c2c1C(=O)NCC1(CCOCC1)C2` [Example 70, 3-(1-ethyl-8-oxo-spiro[6,7-dihydro-4H-pyrazolo[3,4-c]azepine-5,4′-tetrahydro-pyran]-3-yl)propyl 2-fluoro-4-(trifluoromethyl)benzoate]: the IC50 was under 100 nM.

Regarding `CCn1nc(CCCOC(=O)c2ccc(C(F)(F)F)cc2)c2c1C(=O)NCC1(CCOCC1)C2` [Example 62, 3-(1-ethyl-8-oxo-spiro[6,7-dihydro-4H-pyrazolo[3,4-c]azepine-5,4′-tetrahydropyran]-3-yl)propyl 4-(trifluoromethyl)benzoate], the IC50 was under 100 nM.

`CCn1nc(C[C@@H](C)COC(=O)c2cccc(F)c2)c2c1C(=O)NCC1(CCOCC1)C2` [Example 143, [(2R)-3-(1-ethyl-8-oxo-spiro[6,7-dihydro-4H-pyrazolo[3,4-c]azepine-5,4′-tetrahydropyran]-3-yl)-2-methyl-propyl] 3-fluorobenzoate]: the IC50 was under 100 nM.

On to `CCn1nc(CCCOC(=O)c2cnn(C)c2)c2c1C(=O)NCC1(CCOCC1)C2` [Example 238, 3-(1-ethyl-8-oxo-spiro[6,7-dihydro-4H-pyrazolo[3,4-c]azepine-5,4′-tetrahydropyran]-3-yl)propyl 1-methylpyrazole-4-carboxylate], for which the IC50 was under 100 nM.

Take `CCn1nc(CCOC(=O)c2ccc(C)cc2)c2c1C(=O)NCC1(CCOCC1)C2` [Example 135, 2-(1-ethyl-8-oxo-spiro[6,7-dihydro-4H-pyrazolo[3,4-c]azepine-5,4′-tetrahydropyran]-3-yl)ethyl 4-methylbenzoate]: the IC50 was under 100 nM.

`CCn1nc(C[C@@H](C)COC(=O)c2cccc(C(C)=O)c2)c2c1C(=O)NCC1(CCOCC1)C2` [Example 154, [(2R)-3-(1-ethyl-8-oxo-spiro[6,7-dihydro-4H-pyrazolo[3,4-c]azepine-5,4′-tetrahydropyran]-3-yl)-2-methyl-propyl] 3-acetylbenzoate]: the IC50 was under 100 nM.

On to `CCn1nc(CCCOC(=O)c2ccc(C(F)(F)F)cc2Cl)c2c1C(=O)NCC1(CCOCC1)C2` [Example 88, 3-(1-ethyl-8-oxo-spiro[6,7-dihydro-4H-pyrazolo[3,4-c]azepine-5,4′-tetrahydro-pyran]-3-yl)propyl 2-chloro-4-(trifluoromethyl)benzoate], for which the IC50 was under 100 nM.

Turning to `CCn1nc(CC(C)(C)COC(=O)c2cccc(C(=O)N3CCN(C(C)=O)CC3)c2)c2c1C(=O)NCC1(CCOCC1)C2` [Example 234, [3-(1-ethyl-8-oxo-spiro[6,7-dihydro-4H-pyrazolo[3,4-c]azepine-5,4′-tetrahydropyran]-3-yl)-2,2-dimethyl-propyl] 3-(4-acetylpiperazine-1-carbonyl)benzoate], the IC50 is under 100 nM.

For `CCn1nc(CC(C)(C)COC(=O)c2cccc(C(=O)N(C)C)c2)c2c1C(=O)NCC1(CCOCC1)C2` [Example 229, [3-(1-ethyl-8-oxo-spiro[6,7-dihydro-4H-pyrazolo[3,4-c]azepine-5,4′-tetrahydro-pyran]-3-yl)-2,2-dimethyl-propyl] 3-(dimethyl-carbamoyl)benzoate], the IC50 was under 100 nM.

Take `CCC(CC)C(=O)OCCCc1nn(CC)c2c1CC1(CCOCC1)CNC2=O` [Example 6, 3-(1-ethyl-8-oxo-spiro[6,7-dihydro-4H-pyrazolo[3,4-c]azepine-5,4′-tetrahydropyran]-3-yl)propyl 2-ethylbutanoate]: the IC50 is under 100 nM.

As to `CCn1nc(C[C@@H](C)COC(=O)c2ccc(C(N)=O)cc2)c2c1C(=O)NCC1(CCOCC1)C2` [Example 169, [(2R)-3-(1-ethyl-8-oxo-spiro[6,7-dihydro-4H-pyrazolo[3,4-c]azepine-5,4′-tetrahydropyran]-3-yl)-2-methyl-propyl] 4-carbamoylbenzoate], the IC50 is under 100 nM.

Turning to `CCn1nc(C[C@@H](C)COC(=O)c2ccc(S(=O)(=O)C3CCCC3)cc2)c2c1C(=O)NCC1(CCOCC1)C2` [Example 162, [(2R)-3-(1-ethyl-8-oxo-spiro[6,7-dihydro-4H-pyrazolo[3,4-c]azepine-5,4′-tetrahydropyran]-3-yl)-2-methyl-propyl] 4-cyclopentylsulfonylbenzoate], the IC50 is under 100 nM.

For `CCn1nc(CCCCOC(=O)C2CCN(C(C)=O)CC2)c2c1C(=O)NCC1(CCOCC1)C2` [Example 274, 4-(1-ethyl-8-oxo-spiro[6,7-dihydro-4H-pyrazolo[3,4-c]azepine-5,4′-tetrahydropyran]-3-yl)butyl 1-acetylpiperidine-4-carboxylate], the IC50 was under 100 nM.

As for `CCn1nc(CC(C)(C)COC(=O)c2ccc(S(=O)(=O)N(C)Cc3ccccc3)cc2)c2c1C(=O)NCC1(CCOCC1)C2` [Example 214, [3-(1-ethyl-8-oxo-spiro[6,7-dihydro-4H-pyrazolo[3,4-c]azepine-5,4′-tetrahydropyran]-3-yl)-2,2-dimethyl-propyl] 4-[benzyl(methyl)sulfamoyl] benzoate], the IC50 was under 100 nM.

`CCn1nc(CCCOC(=O)c2ccc(S(=O)(=O)N3CCOCC3)cc2)c2c1C(=O)NCC1(CCOCC1)C2` [Example 100, 3-(1-ethyl-8-oxo-spiro[6,7-dihydro-4H-pyrazolo[3,4-c]azepine-5,4′-tetrahydropyran]-3-yl)propyl 4-morpholinosulfonylbenzoate]: the IC50 was under 100 nM.
